The values below come from patent US20040034040A1, “Use of thienopyrimidines” (priority 2000, published 2004).

Where a name gives a salt, the structure may show the parent alone.

One may read the melting point as the temperature of the solid-liquid transition. Consider `COc1ccc(CNc2nc(CCC(=O)O)nc3sc4c(c23)CCCC4)cc1Cl` (as salt: salt) [Example 2, 3-[4-(3-chloro-4-methoxybenzylamino)-5,6,7,8-tetrahydro-[1]-benzothieno-[2,3-d]-pyrimidin-2-yl]propionic acid], for which the melting point came to 229 °C.
